Measured values reported in patent US12496285B2, “Compositions and methods using at least one glycine or derivative thereof, at least one N-acetylcysteine or derivative thereof, and at least one nicotinamide riboside or NAD+ precursor” (SOCIETE DES PRODUITS NESTLE S.A., priority 2018, dated 2025).

Tested on: mitochondrial respiration
Test: High-resolution respirometry of isolated muscle mitochondria from adult zebrafish after menadione-induced acute oxidative stress
Type: in vivo
Conditions: 3 uM menadione 2 h then 2 h treatment, low doses: NAC 100 uM + glycine 100 uM (GlyNAC) or NR 50 uM, single treatments
Experimental: FIG. 1. Effect of the combination of NAC, glycine and NR on the mitochondrial respiration. High-resolution respirometry of isolated mitochondria from muscle of adult zebrafish (N=5-6/condition). Acute oxidative stress was induced with a 2 h-treatment with menadione (Men). Rescue of the respiration was assessed with a treatment of 2 h with low doses of […] 100 uM, glycine 100 uM) and low dose of NR (50 uM). Data of respiration measurements are shown in 1A. Theoretical additive effect (Δ[…]) has been calculated as the sum of the mean of […] and NR and have been compared to the synergistic effect (Δ[…]). […] After BCA quantification of protein concentration, 150 ug of crude extract were used for high-resolution respirometry quantification. […] Respiration of isolated mitochondria was determined using substrate-uncoupler-inhibitor titration (SUIT) protocols (Pesta and […], 2012) with modifications. […] CI respiration was calculated as the difference between total respiration (CI+CII) and the addition of CI inhibitor rotenone (0.5 uM); CII respiration was calculated as the difference between inhibited CI respiration and the addition of CII inhibitor malonic acid (5 mM). Total respiration (CI+CII, Tot resp) was assessed as the difference of the respiration in presence of all substrates and the total inhibition of CI and CII. All numerical data are expressed as mean±SEM and reported as histograms. […]

Compound: NC(=O)c1ccc[n+]([C@@H]2O[C@H](CO)[C@@H](O)[C@H]2O)c1 [NR, nicotinamide riboside]
- effect on mitochondrial respiration when used alone: do not show any significant effect when used alone
